Patent US10294248B2, “Beta-lactamase inhibitors” (VenatoRx Pharmaceuticals, Inc., priority 2013, dated 2019)

Assays:
[1] = test system: E. coli ESBL4 expressing CTX-M-15; test: Broth microdilution MIC, E. coli ESBL4 CTX-M-15; type: cell-based; details: for MIC of example compound in presence of fixed β-lactam: Fixed CAZ, E. coli ESBL4 CTX-M-15: fixed 4 μg/mL ceftazidime, CAMHB, 16-20 hours at 37° C.
Source text: (§1) To determine the ability of test compounds to potentiate the inhibition of the growth of bacterial strains that produce beta-lactamase enzymes, classic cell based broth microdilution MIC assays were employed. Six bacteria strains producing beta-lactamase enzymes were used: E. coli expressing the Class A Extended Spectrum Beta-Lactamase (ESBL) CTX-M-15, E. cloacae expressing the Class C P99, K. pneumoniae expressing the Class A carbapenemase KPC-3, P. aeruginosa expressing the Class B carbapenemase VIM-2, K. pneumoniae expressing the class A carbapenemase KPC-2 and the class B carbapenemase VIM-4, and S. aureus producing the Class A penicillinase PC-1. The assay was conducted in Cation Adjusted Mueller Hinton Broth (CAMHB, BD #212322, BD Diagnostic Systems, Sparks, Md.). Bacteria strains were grown for 3-5 hours in CAMBH broth. Test compounds (Examples 1-30) were added to a microtiter plate in 2-fold serial dilutions in CAMHB in a final concentration range of 32 μg/mL to 0.25 μg/ml. An overlay of CAMHB containing a Beta-lactam was added to the compounds at a final static concentration of 4 μg/ml. […] In addition to the titration of test compounds the MICs of a panel of control beta-lactams is also tested to ensure the strains are behaving consistently from test to test. Once the test compound and antibiotics are added the plates can be inoculated according to CLSI broth microdilution method. After inoculation the plates are incubated for 16-20 hours at 37° C. then the Minimal Inhibitory Concentration (MIC) of the test compound is determined visually.
(§2) Using the methodology described above, examples of the current invention were evaluated for their ability to inhibit the growth of β-lactamase-producing bacteria in the presence of a β-lactam antibiotic.
(§3) Using the methodology described above in EXAMPLE III, exemplary compounds for Formula I or Formula Ia were evaluated for their ability to inhibit the growth of β-lactamase producing bacteria in the presence of a β-lactam antibiotic.

[2] = test system: E. cloacae 144200 expressing Class C P99 AmpC; test: Broth microdilution MIC, E. cloacae 144200 p99 AmpC; type: cell-based; details: for MIC of example compound in presence of fixed β-lactam: Fixed CAZ, E. cl. 144200 p99 AmpC: fixed 4 μg/mL ceftazidime, CAMHB, 16-20 hours at 37° C.
Source text: as §1, §2, §3

[3] = target: T1, SHV-5 β-lactamase (Class A ESBL) (Klebsiella pneumoniae, UniProt P0A3M1); test: β-Lactamase inhibition, SHV-5; type: biochemical
T1 construct: made in house; host or cells: E. coli BL21(DE3)
T1 sequence (P0A3M1 22-286): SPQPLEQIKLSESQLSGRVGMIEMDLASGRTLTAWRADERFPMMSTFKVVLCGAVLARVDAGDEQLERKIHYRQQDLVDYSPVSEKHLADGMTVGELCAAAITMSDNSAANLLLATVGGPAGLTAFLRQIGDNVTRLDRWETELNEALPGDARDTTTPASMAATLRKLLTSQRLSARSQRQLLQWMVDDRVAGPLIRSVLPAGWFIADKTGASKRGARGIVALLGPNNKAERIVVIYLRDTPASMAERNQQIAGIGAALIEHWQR
Method: (§4) For SHV-5, Kpc-2, p99AmpC and OXA-1 β-lactamases, E. coli BL21(DE3) bacterial cells carrying expression plasmids (expressed as native untagged proteins) for the individual β-lactamases were grown in 1 L of Superbroth (Teknova Inc. Hollister, Calif.) supplemented with 100 μg/ml kanamycin selection and 1×5052 (0.5% glycerol, 0.05% glucose and 0.2% α-lactose) at 35° C. for 18-20 hours. Cells were harvested by centrifugation (4,000×g, 4° C., 20 min), resuspended in 50 ml of 10 mM HEPES pH 7.5 ( 1/20 of the initial volume). The cells were lysed by sonication (5 pulses of 45 seconds) at 45 W on ice. The lysates were clarified by centrifugation at 10,000×g for 40 minutes at 4° C. Samples were diluted 5-fold in 50 mM sodium acetate pH 5.0, stored overnight at 4° C., after which they were centrifuged at 10,000×g for 30 minutes to clarify, and filtered through 0.45 μm filters. The samples were loaded onto a 5 ml Capto S sepharose cation exchange column (GE Healthcare) pre-equilibrated with 50 mM sodium acetate pH 5.0. The column was washed with 5 column volumes of 50 mM sodium acetate pH 5.0 to wash out unbound protein and a linear gradient of NaCl (0 to 500 mM) was used to elute the protein (over 16 CV) from the column. Fractions were assayed for β-lactamase activity using Centa (Calbiochem, Gibbstown, N.J.) or Nitrocefin (EMD Millipore chemicals, Darmstadt, Germany) as a reporter β-lactamase substrate for activity in the isolated fractions. Active fractions were pooled, concentrated and further purified by gel filtration chromatography on a Superdex 75 prep grade gel filtration column (GE Healthcare, Piscataway, N.J.) pre-equilibrated in 50 mM Hepes pH 7.5, 150 mM NaCl. Active fractions were pooled concentrated, quantitated by BCA protein determination (Thermo Scientific, Rockford, Ill.), dialyzed into PBS and frozen at −80° C. in 20% glycerol until use.
(§5) An equal volume of diluted enzyme stock was added, and the plates were incubated at 37° C. for 15 min. Nitrocefin was used as substrate for p99 AmpC, VIM-2 and OXA-1 and dispensed into each well at a final concentration of 100 μM. Absorbance at 486 nm was immediately monitored for 10 min using a Biotek Powerwave XS2 microplate spectrophotometer using the GEN5 software package (Biotek Instruments, Winooski Vt.). In an analogous fashion, imipenem was used as substrate for Kpc-2 and Cefotaxime was used for SHV-5, while changes in absorbance upon hydrolysis of the β-lactam ring were monitored at 300 nm and 260 nm respectively in UV-transparent 96-well microtiter assay plates. Maximum rates of hydrolysis were compared to those in control wells (without inhibitors), and percentages of enzyme inhibition were calculated for each concentration of inhibitor. The concentration of inhibitor needed to reduce the initial rate of hydrolysis of substrate by 50% (IC50) was calculated as the residual activity of β-lactamase at 486 nm using GraFit version 7 kinetics software package (Erithacus Software, Surrey, UK).
(§6) Using the methodology described above, examples of the current invention were evaluated for their ability to inhibit β-lactamase enzymes from all four Ambler classifications (A through D). […] NT=Not tested.

[4] = target: T2, KPC-2 β-lactamase (Class A carbapenemase) (Klebsiella pneumoniae, UniProt Q9F663); test: β-Lactamase inhibition, KPC-2; type: biochemical; details: imipenem substrate, 300 nm; 15 min preincubation at 37° C., PBS pH 7.4
T2 construct: made in house; host or cells: E. coli BL21(DE3)
T2 sequence (Q9F663 25-293, looked up): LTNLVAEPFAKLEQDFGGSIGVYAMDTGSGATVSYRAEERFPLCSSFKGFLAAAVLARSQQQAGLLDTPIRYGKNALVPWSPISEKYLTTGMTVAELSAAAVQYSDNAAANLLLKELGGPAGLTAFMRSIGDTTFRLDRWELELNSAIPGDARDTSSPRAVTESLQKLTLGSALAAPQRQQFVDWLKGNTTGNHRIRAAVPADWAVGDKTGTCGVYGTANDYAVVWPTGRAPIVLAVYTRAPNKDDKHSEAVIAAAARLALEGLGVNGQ
Method: as §4, §5, §6

[5] = target: T3, VIM-2 metallo-β-lactamase (Class B) (Pseudomonas aeruginosa, UniProt Q9K2N0); test: β-Lactamase inhibition, VIM-2; type: biochemical; details: nitrocefin 100 μM, 486 nm; 15 min preincubation at 37° C., PBS pH 7.4
T3 construct: made in house; host or cells: E. coli BL21(DE3)
Method: For Vim-2 metallo β-lactamase, the procedure was identical with the following exceptions, first the protein was not pH adjusted to pH 5 with 50 mM sodium acetate, second, the chromatography step was changed to a 5 ml Q sepharose anion exchange column pre-equilibrated with 50 mM Hepes pH 7.5, and elution of the protein was achieved by a linear gradient of NaCl (0-600 mM). Finally, the VIM-2 purification required a second run (3rd step) on the Q sepharose anion exchange column to achieve acceptable purity (>90%).
as §5, §6

[6] = target: T4, p99 AmpC β-lactamase (Class C) (Enterobacter cloacae, UniProt P05364); test: β-Lactamase inhibition, p99 AmpC; type: biochemical
T4 construct: made in house; host or cells: E. coli BL21(DE3)
T4 sequence (P05364 21-381): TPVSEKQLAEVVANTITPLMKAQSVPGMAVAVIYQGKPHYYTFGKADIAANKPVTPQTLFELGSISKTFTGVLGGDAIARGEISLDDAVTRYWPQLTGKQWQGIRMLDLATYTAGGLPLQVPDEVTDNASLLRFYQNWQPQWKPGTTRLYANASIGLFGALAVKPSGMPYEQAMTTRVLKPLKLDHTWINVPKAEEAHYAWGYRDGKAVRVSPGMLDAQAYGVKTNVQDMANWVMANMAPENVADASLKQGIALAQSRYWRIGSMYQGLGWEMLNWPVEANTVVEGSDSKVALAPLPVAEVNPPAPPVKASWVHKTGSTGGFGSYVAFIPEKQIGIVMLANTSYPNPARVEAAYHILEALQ
Method: as §4, §5, §6

[7] = target: T5, OXA-1 β-lactamase (Class D oxacillinase) (Escherichia coli, UniProt P13661); test: β-Lactamase inhibition, OXA-1; type: biochemical; details: nitrocefin 100 μM, 486 nm; 15 min preincubation at 37° C., PBS pH 7.4
T5 construct: made in house; host or cells: E. coli BL21(DE3)
T5 sequence (P13661 26-276): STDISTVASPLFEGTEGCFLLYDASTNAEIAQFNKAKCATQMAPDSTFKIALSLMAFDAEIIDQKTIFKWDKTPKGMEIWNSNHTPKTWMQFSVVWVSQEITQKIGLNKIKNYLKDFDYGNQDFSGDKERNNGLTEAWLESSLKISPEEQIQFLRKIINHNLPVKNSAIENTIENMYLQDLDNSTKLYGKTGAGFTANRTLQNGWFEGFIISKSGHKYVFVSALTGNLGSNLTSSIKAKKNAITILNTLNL
Method: as §4, §5, §6

[8] = test system: P. aeruginosa Ps296 expressing VIM-2; test: Broth microdilution MIC, P. aeruginosa Ps296 VIM-2; type: cell-based; details: fixed 4 μg/mL meropenem; CAMHB, 16-20 hours at 37° C.
Source text: as §1, §2, §3

[9] = test system: K. pneumoniae A-1797 expressing KPC-2 and VIM-4; test: Broth microdilution MIC, K. pneumoniae A-1797 KPC-2/VIM-4; type: cell-based; details: fixed 4 μg/mL meropenem; CAMHB, 16-20 hours at 37° C.
Source text: as §1, §2, §3

[10] = test system: S. aureus MSSA-7 producing penicillinase PC-1; test: Broth microdilution MIC, S. aureus MSSA-7 PC-1; type: cell-based; details: fixed 4 μg/mL piperacillin; CAMHB, 16-20 hours at 37° C.
Source text: as §1, §2, §3

[11] = test system: K. pneumoniae 156319 expressing KPC-3; test: Broth microdilution MIC, K. pneumoniae 156319 KPC-3; type: cell-based; details: fixed 4 μg/mL meropenem; CAMHB, 16-20 hours at 37° C.
Source text: as §1, §2, §3

SMILES	MIC ([1]; Escherichia coli, read-out: MIC alone, E. coli expressing CTX-M-15)	MIC ([2]; Enterobacter cloacae, read-out: MIC alone, E. cloacae expressing Class C P99)	IC50 [3]	IC50 [4]	IC50 [5]	IC50 [6]	IC50 [7]	MIC of example compound in presence of fixed β-lactam: Fixed CAZ, E. coli ESBL4 CTX-M-15 [1]	MIC of example compound in presence of fixed β-lactam: Fixed CAZ, E. cl. 144200 p99 AmpC [2]	MIC of example compound in presence of fixed β-lactam: Fixed Mero, P. aerug. Ps296 VIM-2 [8]	MIC of example compound in presence of fixed β-lactam: Fixed Mero, K. P. A-1797 KPC-2 VIM-4 [9]	MIC of example compound in presence of fixed β-lactam: Fixed Pip, S. aureus MSSA-7 PC-1 [10]	MIC of example compound in presence of fixed β-lactam: Fixed Mero, K. P. 156319 KPC-3 [11]
CC(C)(O/N=C(\C(=O)N[C@@H]1C(=O)N2C(C(=O)[O-])=C(C[n+]3ccccc3)CS[C@H]12)c1csc(N)n1)C(=O)O [Ceftazidime, reference compound]	> 128 µg/mL	128 µg/mL	–	–	–	–	–	–	–	–	–	–	–
NC1CCN(CC(=O)N[C@H]2Cc3cccc(C(=O)O)c3OB2O)CC1 [Example 1, 3-[2-(4-Amino-piperidin-1-yl)-acetylamino]-2-hydroxy-3,4-dihydro-2H-benzo[e][1,2]oxaborinine-8-carboxylic acid]	–	–	< 100 nM	< 100 nM	10000 to 100000 nM	< 100 nM	100 to 1000 nM	C (the MIC in the presence of <4 μg/mL of a β-lactamase inhibitor)	B (the MIC in the presence of between 8 and 32 μg/mL of a β-lactamase inhibitor)	A (an MIC of the fixed β-lactam antibiotic in the presence of >32 μg/mL of a β-lactamase inhibitor)	A (an MIC of the fixed β-lactam antibiotic in the presence of >32 μg/mL of a β-lactamase inhibitor)	C (the MIC in the presence of <4 μg/mL of a β-lactamase inhibitor)	–
N=C(N)N1CCC(CC(=O)N[C@H]2Cc3cccc(C(=O)O)c3OB2O)CC1 [Example 33, 3-[2-(1-Carbamimidoyl-piperidin-4-yl)-acetylamino]-2-hydroxy-3,4-dihydro-2H-benzo[e][1,2]oxaborinine-8-carboxylic acid]	–	–	< 100 nM	100 to 1000 nM	1000 to 10000 nM	< 100 nM	–	C (the MIC in the presence of <4 μg/mL of a β-lactamase inhibitor)	C (the MIC in the presence of <4 μg/mL of a β-lactamase inhibitor)	A (an MIC of the fixed β-lactam antibiotic in the presence of >32 μg/mL of a β-lactamase inhibitor)	B (the MIC in the presence of between 8 and 32 μg/mL of a β-lactamase inhibitor)	C (the MIC in the presence of <4 μg/mL of a β-lactamase inhibitor)	B (the MIC in the presence of between 8 and 32 μg/mL of a β-lactamase inhibitor)
